Where two headings read alike, the source gives them in different places.

For assay [1], the system named is K48-Ub (lysine-48 chain linkage of poly-ubiquitin) in A549 cells. The assay is described as follows: A549 K48-Ub accumulation, immunofluorescence high-content imaging. Format: cell-based. Particulars: Homo sapiens, 6 hr incubation. How it is done: Image-analysis is used to generate quantitative data from these assays that can be fit to a four-parameter sigmoid curve to derive IC50 values. Substrates of the ubiquitin-proteasome system, such as p53, are monitored after tumor cell lines are incubated with compounds for several hours. Accumulation of these proteins indicates an inhibition of proteasome-mediated degradation. Accumulation of lysine-48 chain linkage of poly-ubiquitin is also monitored by immunofluorescence as an indicator of ubiquitin-proteasome system inhibition. Both LC3 and SQSTM1 are mediators of autophagy. The localization and amounts of these proteins are monitored by immunofluorescence and report on the activity and inhibition of autophagy in response to p97 inhibition.
(§1) Cell Plating: • Seed cells ˜16 hrs prior to compound treatment • Plate 25 μL of A549 cells in every well of 384-well plate using multidrop. • Two (2) black plates for IF at 2500 cells/well • Let plate sit at room temp for 10-15 minutes prior to putting in incubator to • allow cells to stick in middle of plate. • One (1) white plate for viability at 500 cells/well.
(§2) Day 2 Treatment of Cultured Cells with Test Compounds • Treat Cells: • Serial dilute compounds with a 10 point 2-fold serial dilution in DMSO to make 250× stock compound solution • Dilute compounds 1:125 in cell culture media to make a 2× solution Add • 25 μl of dilution compounds to cell plates in well duplicates Put cells back in incubator (6 hr incubation for black plates, 72 hr incubation for white plates).
Fix/Stain Black Plates: • Incubate cells in black plates with compound at 37 deg C. for 6 hrs. add 15 μL of 16% Paraformaldehyde (PFA) directly into media of each well, incubate at room temp for 5 min, flick plate and wash in 50 μL of PBS block in 50 μL of Blocking Buffer for 30 minutes (can go up to several hours) • Blocking buffer: 1×PBS, 1% BSA, 0.3% Triton-X 100, Hoechst (1:10,000) incubate in 25 μL of primary antibody in blocking buffer at 4 deg C. over night
Secondary Antibodies: • AlexaFluor488 Goat anti-Rabbit 1:2,000 (Life Tech A11008) • AlexaFluor555 Goat anti-Mouse 1:2.000 (Life Tech A21422)
Day 3/4 • Black Plate Staining (cont): • wash black plates 3× in 50 μL PBS (˜5 min each) incubate in 25 μl of secondary antibody (1:2,000) in blocking buffer for 1-2 hrs at room temp (alexafluor488-anti-Rabbit/alexafluor555-anti-Mouse) • wash 4× in 50 μL PBS (˜5 min each) • leave plates in PBS for imaging • clean bottom of plates with 70% EtOH
Imaging: • Image plates in high content microscope with 405 nm, 488 nm and 555 nm filters
Data Analysis: • Nuclear counts and cellular intensities of each markers are measured using Hoechst as a nuclear marker with an automated image analysis protocol using Matlab software (Math Works)

Another assay concerns the target p97 (Homo sapiens, UniProt P55072). The assay is described as follows: P97 ATPase biochemical assay (ADP Glo). To be noted: 20 nM p97, 20 μM ATP, 37° C. for 15 minutes. As to the method:
The ATPase assay is performed according the following protocol: Purified enzyme (20 nM p97), substrate (20 μM ATP) and a dose titration of compounds are mixed in buffer (50 mM TRIS pH 7.5, 20 mM MgCl2, 0.02% TX-100, 1 mM DTT, 0.2% (v/v) glycerol) and incubated at 37° C. for 15 minutes. The reaction is terminated and the level of product generated is measured using the ADP Glo Assay Kit (Promega, Madison Wis.). Plotting product generated versus compound concentration and using a four-parameter fit model generates an IC50 value for each compounds.
The p97 assay is an initial screening assay used to determine inhibitory activity of the fused pyrimidine compounds of the invention against the p97 complex. As discussed above, inhibition of activity of the p97 proteosome complex can enable apoptosis and cause elimination of neoplastic cells (cancer cells). The method follows that of Christianson in Nat. Cell Biol., (2011) 14:93.
Assay Buffer is a mixture of 50 mM TRIS pH 7.5, 20 mM MgCl2, 0.02% TX-100, 1 mM DTT and 0.2% (v/v) Glycerol. The well plate is Platetype: Corning 3674, 384w plate. The identification kit is an ADP glo kit (Promega): stop buffer, detection reagent.
Serial dilute compound in DMSO in a 1:3.33-fold 10 point serial dilution.
in each well of 384w plate add the following reagents:
0.5 μL compound serial diluted in DMSO (Final Conc. 10%)
2 μL ATP (Final Conc.=20 uM, diluted in assay buffer)
2.5 μL p97 (Final Conc.=20 nM, diluted in assay buffer)
Incubate at 37 deg C. for 15 min.
Add 5 μL of stop buffer, incubate at RT for 40 min.
Add 10 μL of detection reagent, incubate at RT for 30 min.
Read luminescence on Envision plate reader.
Upon obtaining the data from the luminescence reading, the data may be analyzed as follows:
Normalize luminescence data using no enzyme (full inhibition) and no compound (no inhibition) controls. Plot normalized luminescence data against log-transformed concentration values and fit to a sigmoidal curve to determine IC50 values (done in Collaborative Drug Discovery software).
In general terms: ADP-Glo first removes unused ATP, then detects ADP through luciferase.

A further assay deals with A549 cells. Kind of assay: Cultured cancer cell viability assay (cell titer glo, CTG) in A549 cells. To be noted: Homo sapiens, read-out: A549 CTG IC50. It is filed as cell-based.
Description: Anti-tumor effects are monitored in cultured cancer cells after several days of compound treatment. The cell titer glo assay (Promega) measures the amount of ATP present as a proxy for cellular viability. Cellular counting is done using high-content microscopy followed by image analysis. A hanging drop 3D-culture system (3D Biomatrix) is used followed by cell titer glo to measure growth in a tumor-like environment.
The cellular assay provides information about the anti-neoplastic activity of the compounds of the invention. The compounds are tested against cultured cancer cells to determine whether or not the compounds of the invention are capable of intersecting with cancer cells to minimize or eliminate such cells. The assay involves establishing colonies of such cells and then treating them with the test compound under specified conditions and analysis regima to determine results.
as §1, §2
Viability Assay: • Thaw an aliquot of frozen cell titer glo (Promega G7572) at room temperature. • Add 45 mL of NaCl/PBS solution to 5 ml of cell titer glo (10×). • Remove white plates from incubator, leave at room temp for 30 minutes. • Add 25 μl of diluted cell titer glo to each well. • Shake plate for >1 minute. • Incubate plate for >5 minutes to stabilize luminescence. • Luminescence is stable for up to 3 hours. • Read luminescence on plate reader
(ATP-based viability assays read luminescence as a measure of living cells.)

Where [2] appears, read: A549 cells, 72 hr incubation, cell titer glo.

Sequence of p97 (P55072 whole entry): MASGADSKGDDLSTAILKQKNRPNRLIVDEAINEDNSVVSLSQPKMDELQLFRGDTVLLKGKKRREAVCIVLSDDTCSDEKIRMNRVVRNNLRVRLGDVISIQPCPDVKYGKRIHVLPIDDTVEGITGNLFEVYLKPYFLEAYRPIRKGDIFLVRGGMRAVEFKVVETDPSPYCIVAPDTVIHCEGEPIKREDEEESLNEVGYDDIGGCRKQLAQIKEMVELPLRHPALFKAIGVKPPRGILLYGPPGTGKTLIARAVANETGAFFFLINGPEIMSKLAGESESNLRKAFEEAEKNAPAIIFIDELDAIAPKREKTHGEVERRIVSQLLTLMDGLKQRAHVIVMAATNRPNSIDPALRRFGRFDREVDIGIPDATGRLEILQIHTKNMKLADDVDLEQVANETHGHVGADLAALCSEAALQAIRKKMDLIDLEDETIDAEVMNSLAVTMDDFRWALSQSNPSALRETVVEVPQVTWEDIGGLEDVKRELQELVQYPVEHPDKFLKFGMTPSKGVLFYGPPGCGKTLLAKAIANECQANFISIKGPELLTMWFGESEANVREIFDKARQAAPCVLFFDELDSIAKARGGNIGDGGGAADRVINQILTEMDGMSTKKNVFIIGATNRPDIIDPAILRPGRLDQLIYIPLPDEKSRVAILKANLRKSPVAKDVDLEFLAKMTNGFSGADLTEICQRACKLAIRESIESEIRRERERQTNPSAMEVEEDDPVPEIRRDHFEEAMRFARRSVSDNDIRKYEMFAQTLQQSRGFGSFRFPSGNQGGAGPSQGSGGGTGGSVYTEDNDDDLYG

As usually defined, the IC50 is the concentration at which inhibition is half-maximal. As for `Cc1cc2c(C(N)=O)cccc2n1-c1nc(NCc2cc(F)cc(F)c2)c2c(n1)OCCC2` [FF30, 1-(4-((3,5-difluorobenzyl)amino)-6,7-dihydro-5H-pyrano[2,3-d]pyrimidin-2-yl)-2-methyl-1H-indole-4-carboxamide], the IC50 in assay [1] is below 3 µM; against p97 it was below 0.03 µM; in the assay with A549 cells (setting [2]), below 3 µM.

Turning to `Cc1cc2c(C(N)=O)cccc2n1-c1nc2c(c(NCc3cccc(F)c3)n1)NCCC2` [FF25, 1-(4-((3-fluorobenzyl)amino)-5,6,7,8-tetrahydropyrido[3,2-d]pyrimidin-2-yl)-2-methyl-1H-indole-4-carboxamide], the half-inhibitory concentration (IC50) in assay [1] was below 3 µM; on p97 it was below 0.03 µM; with A549 cells (setting [2]), below 3 µM.

Turning to `Cc1[nH]c2c(C(N)=O)cccc2c1-c1nc2c(c(NCc3ccccc3)n1)COCC2` [FF10, 3-(4-(benzylamino)-7,8-dihydro-5H-pyrano[4,3-d]pyrimidin-2-yl)-2-methyl-1H-indole-7-carboxamide], the IC50 is below 3 µM in assay [1], below 0.1 µM at p97 and below 3 µM with A549 cells (setting [2]).

Consider `COc1nc2c(C(N)=O)cccc2n1-c1nc(NCc2cccc(F)c2)c2c(n1)OCCC2` [FF15, 1-(4-((3-fluorobenzyl)amino)-6,7-dihydro-5H-pyrano[2,3-d]pyrimidin-2-yl)-2-methoxy-1H-benzo[d]imidazole-4-carboxamide], for which the 50% inhibitory concentration (IC50) against p97 is below 0.03 µM; in the assay on A549 cells (A549, 72 h), below 3 µM.

Compound `Cc1cc2c(CN)cccc2n1-c1nc(NCc2ccccc2)c2c(n1)OCCC2` [FF31, 2-(4-(aminomethyl)-2-methyl-1H-indol-1-yl)-N-benzyl-6,7-dihydro-5H-pyrano[2,3-d]pyrimidin-4-amine] gave a half-inhibitory concentration (IC50) against p97 below 0.3 µM.

On to `Cc1[nH]c2c(C(N)=O)cccc2c1-c1nc(NCc2ccccc2)c2c(n1)OCCC2` [FF27, 3-(4-(benzylamino)-6,7-dihydro-5H-pyrano[2,3-d]pyrimidin-2-yl)-2-methyl-1H-indole-7-carboxamide], for which the IC50 in assay [1] is below 3 µM; on p97, below 0.1 µM; with A549 cells (setting [2]), below 3 µM.

As to `Cc1cc2c(C(N)=O)cccc2n1-c1nc(NCc2ccccc2)c2c(n1)OCCC2` [FF06, 1-(4-(benzylamino)-6,7-dihydro-5H-pyrano[2,3-d]pyrimidin-2-yl)-2-methyl-1H-indole-4-carboxamide], the figures for the concentration for half-maximal inhibition (IC50) (in assay [1]; against p97; in the assay on A549 cells (setting [2])) were below 1 µM, below 0.03 µM and below 1 µM, respectively.

As for `NC(=O)c1cccc2c1cnn2-c1nc(NCc2cccc(F)c2)c2c(n1)OCCC2` [FF16, 1-(4-((3-fluorobenzyl)amino)-6,7-dihydro-5H-pyrano[2,3-d]pyrimidin-2-yl)-1H-indazole-4-carboxamide], the figures for the 50% inhibitory concentration (IC50) on p97 and with A549 cells (setting [2]) were below 0.03 µM and below 10 µM, respectively.

As to `NC(=O)c1cccc2c1cnn2-c1nc2c(c(NCc3cccc(F)c3)n1)CCCC2` [FF14, 1-(4-((3-fluorobenzyl)amino)-5,6,7,8-tetrahydroquinazolin-2-yl)-1H-indazole-4-carboxamide], the IC50 at p97 is below 0.1 µM; in the assay with A549 cells (setting [2]), below 3 µM.

On to `NC(=O)c1cccc2c1cnn2-c1nc(NCc2ccccc2)c2c(n1)OCCC2` [FF28, 1-(4-(benzylamino)-6,7-dihydro-5H-pyrano[2,3-d]pyrimidin-2-yl)-1H-indazole-4-carboxamide], for which the results for the IC50 (in assay [1]; at p97; in the assay with A549 cells (setting [2])) were below 3 µM, below 0.1 µM and below 3 µM, respectively.

On to `Cc1[nH]c2ccccc2c1-c1nc2c(c(NCc3ccccc3)n1)CCCC2` [FF36, N-benzyl-2-(2-methyl-1H-indol-3-yl)-5,6,7,8-tetrahydroquinazolin-4-amine], for which the IC50 (in assay [1]; in the assay on A549 cells (setting [2])) was below 10 µM throughout.

On to `Cc1cc2c(C(N)=O)cccc2n1-c1nc2c(c(NCc3ccccc3)n1)CCNCC2` [FF20, 1-(4-(benzylamino)-6,7,8,9-tetrahydro-5H-pyrimido[4,5-d]azepin-2-yl)-2-methyl-1H-indole-4-carboxamide], for which the IC50 at p97 is below 0.3 µM; in the assay with A549 cells (A549, 72 h) it was below 3 µM.

The compound `Cc1cc2c(C(N)=O)cccc2n1-c1nc(NCc2ccccc2)c2c(n1)C(C)CN(C)C2` (stereo not drawn) [FF13, 1-(4-(benzylamino)-6,8-dimethyl-5,6,7,8-tetrahydropyrido[4,3-d]pyrimidin-2-yl)-2-methyl-1H-indole-4-carboxamide] gave an IC50 on p97 below 0.1 µM.

As for `NC(=O)c1cccc2c1cnn2-c1nc2c(c(NCc3ccccc3)n1)COCC2` [FF04, 1-(4-(benzylamino)-7,8-dihydro-5H-pyrano[4,3-d]pyrimidin-2-yl)-1H-indazole-4-carboxamide], the half-inhibitory concentration (IC50) on p97 was below 0.3 µM.

The compound `NC(=O)c1cccc2c1cnn2-c1nc2c(c(NCc3ccccc3)n1)CNCC2` [FF33, 1-(4-(benzylamino)-5,6,7,8-tetrahydropyrido[4,3-d]pyrimidin-2-yl)-1H-indazole-4-carboxamide] registered an IC50 against p97 below 1 µM.

`CN1CCCc2nc(-n3ncc4c(C(N)=O)cccc43)nc(NCc3cccc(F)c3)c21` [FF11, 1-(4-((3-fluorobenzyl)amino)-5-methyl-5,6,7,8-tetrahydropyrido[3,2-d]pyrimidin-2-yl)-1H-indazole-4-carboxamide] came in with a half-maximal inhibitory concentration (IC50) against p97 below 0.1 µM.

Regarding `NC(=O)c1cccc2c1cc(CO)n2-c1nc2c(c(NCc3ccccc3)n1)CCCN2` [FF17, 1-(4-(benzylamino)-5,6,7,8-tetrahydropyrido[2,3-d]pyrimidin-2-yl)-2-(hydroxymethyl)-1H-indole-4-carboxamide], the figures for the IC50 on p97 and in the assay with A549 cells (setting [2]) were below 0.03 µM and below 1 µM, respectively.

Consider `Cc1oc2c(C(N)=O)cccc2c1-c1nc2c(c(NCc3cccc(F)c3)n1)COCC2` [FF22, 3-(4-((3-fluorobenzyl)amino)-7,8-dihydro-5H-pyrano[4,3-d]pyrimidin-2-yl)-2-methylbenzofuran-7-carboxamide], for which, on p97, the 50% inhibitory concentration (IC50) is below 1 µM.

Source of the values: patent US10174005B2, “Fused pyrimidines as inhibitors of p97 complex” (Cleave Biosciences, Inc., priority 2014, dated 2019).
